For data set [1] the following is noted: many effects described as coagulation anomalies; cited from earlier work.
Data set [2] has as its target T1, heparin binding site of human α-thrombin (Homo sapiens, UniProt P00734).
T1 construct: A stock human α-thrombin solution; purchased Enzyme Research Labs
Briefly: Microplate thermal shift assay, ligands binding to the heparin binding site, turbidity as signal. From the text:
Assays for ligands that bind to the heparin binding site of human α-thrombin are more difficult to perform than assays for ligands that bind to the active site of human α-thrombin. At the heparin binding site, no substrate is hydrolyzed, so no spectrophotometric signal can be amplified for instrumental detection. Heparin activity is usually estimated in biological clotting time assays. […] Thus, heparin binding to human α-thrombin represents the kind of challenge encountered with the vast majority of non-enzyme receptor/ligand binding events, which are commonly observed for hormone/receptor interactions, repressor/DNA interactions, neurotransmitter/receptor interactions, etc. Several heparin-like sulfated oligosaccharides and sulfated naphthalene compounds were assayed by the microplate thermal shift assay. Using the thermal shift assay, it was possible to use a single compound per well to quickly rank the compounds in order of increasing binding affinity, with Kd's ranging over three orders of magnitude (see Table 4). Like the experiment in Example 1, the thermal shift assay results agreed closely with the results obtained through an alternative method, which required a series of laborious (15 to 20 single determinations) fluorescence quench assays over a wide range of concentrations of low MW heparin (Olson, S. T. et al., J. Biol. Chem. 266:6342-6352 (1991)).

In a further data set the target is bFGF (Homo sapiens, UniProt P09038). To be noted: binding to bFGF by isothermal titrating calorimetry; read-out: Ki (298° K) Literature; cited from earlier work.
The test system of data set [3] is D(II) domain of human FGF receptor 1. Description: Microplate thermal shift assay for ligands binding to D(II) FGFR1, fluorescence emission as signal. From the text: The microplate thermal-shift assay was employed to test the binding of heparin 5000 and pentosan PSO4 to the known heparin binding site in the D(II) domain of fibroblast growth factor receptor 1 (FGFR1). D(II) FGFR1 is a 124 residue domain which is responsible for most of the free energy of binding for bFGF. D(II) FGFR1 was cloned and expressed in E. coli. Recombinant D(II) FGFR1 was renatured from inclusion bodies essentially as described (Wetmore, D. R. et al., Proc. Soc. Mtg., San Diego, Calif. (1994)), except that a hexa-histidine tag was included at the N-terminus to facilitate recovery by affinity chromatography on a Ni^2+ chelate column (Janknecht, R. et al., Natl. Acad. Sci. USA 88:8972-8976 (1991)). D(II) FGFR1 was further purified on a heparin-sepharose column (Kan, M. et al., Science 259:1918-1921 (1993); Pantoliano, M. W. et al., Biochemistry 33:10229-10248 (1994)). Purity was >95%, as judged by SDS-PAGE. The D(II) FGFR1 protein was concentrated to 12 mg/mL (˜1 mM) and stored at 4° C.
The D(II) FGFR1 protein was dissolved in an ANS solution to a concentration of […] (70 μM). The quantum yield for ANS bound to the denatured form of D(II) FGFR1 was lower than the quantum yield for ANS bound to human α-thrombin. Because ANS fluorescence is very environment dependent (see Lakowicz, I. R. Principles of Fluorescence Spectroscopy, Plenum Press, New York (1983)), the quantum yield observed for the denaturation of different proteins will vary. For D(II) FGFR1, the signal for the turbidity version of the assay, however, was nearly undetectable. Despite the decreased sensitivity for D(II) FGFR1, ANS rescued this system for the microplate assay. A similar-result was obtained for Factor Xa, except that the fluorescence quantum yield for ANS bound to denatured Factor Xa was almost as good as it was for human α-thrombin.

For data set [4] the following is noted: literature; cited from earlier work.
A further data set addresses D(II)-D(III) FGFR1. The conditions noted are these: titrating calorimetry, read-out: Kd (298° K) Literature; cited from earlier work.
The target of data set [5] is T2, heparin binding site of basic fibroblast growth factor (bFGF) (Homo sapiens, UniProt P09038).
T2 construct: host or cells: E. coli
Description: Microplate thermal shift assay for ligands binding to bFGF. To be noted: read-out: binding affinity. An excerpt: The microplate thermal shift assay was used to assess ligands for binding to the heparin binding site of basic fibroblast growth factor (bFGF). The gene for bFGF was purchased from R&D Systems and was cloned and expressed in E. coli as previously described (Thompson, L. D. et al., Biochemistry 33:3831-3840 (1994); Pantoliano, M. W. et al., Biochemistry 33:10229-10248 (1994); Springer, B. A. et al., J. Biol. Chem. 269:26879-26884 (1994)).

Data set [6] deals with T3, acidic fibroblast growth factor (aFGF) (Homo sapiens, UniProt P05230).
T3 construct: host or cells: E. coli
Briefly: Microplate thermal shift assay for ligands binding to aFGF, turbidity as signal. An excerpt:
The second therapeutic receptor tested in the microplate thermal shift assay was acidic fibroblast growth factor (aFGF), a growth factor that plays a key role in angiogenesis (Folkman, J. et al., J. Biol. Chem. 267:10931-10934 (1992)). A synthetic gene for this protein was purchased from R&D Systems (Minneapolis, Minn.), and was cloned and expressed in E. coli using methods similar to those described for basic fibroblast growth factor (bFGF) (Thompson, L. D. et al., Biochemistry 33:3831-3840 (1994); Pantoliano, M. W. et al., Biochemistry 33:10229-10248 (1994); Springer, B. A. et al., J. Biol. Chem. 269:26879-26884 (1994)). Recombinant aFGF was then purified by heparin-sepharose affinity chromatography as described (Thompson, L. D. et al., Biochemistry 33:3831-3840 (1994)). aFGF is also known to bind heparin/heparan, which is a cofactor for mitogenic activity. […] A microplate thermal assay of these compounds was set up in a way similar to that described above for human α-thrombin. […] The affinity constants covered a fairly broad range of binding affinities, with pentosan PSO4 showing the highest affinity.

The mark [7] stands for this setting: equation (1), estimated ΔHu 60.0 kcal/mole, ΔCpu 0.95 kcal/mole-°K, read-out: Kd at Tm.

pKd, pKi: −log10 of the molar value. Where two headings read alike, the source gives them in different places.

The pKi is the negative decadic logarithm of the Ki, by convention in mol/L.

T3 sequence (P05230 whole entry, species assumed): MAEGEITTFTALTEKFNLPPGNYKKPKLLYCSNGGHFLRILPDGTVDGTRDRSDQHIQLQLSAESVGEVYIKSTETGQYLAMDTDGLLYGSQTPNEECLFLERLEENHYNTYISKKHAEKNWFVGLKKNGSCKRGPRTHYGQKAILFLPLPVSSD
Sequence of D(II) domain of human FGF receptor 1 (P11362 158-246 limits assumed): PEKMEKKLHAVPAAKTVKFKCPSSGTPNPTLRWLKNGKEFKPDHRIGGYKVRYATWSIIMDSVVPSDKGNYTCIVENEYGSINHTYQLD
T2 sequence (P09038 134-288, species assumed): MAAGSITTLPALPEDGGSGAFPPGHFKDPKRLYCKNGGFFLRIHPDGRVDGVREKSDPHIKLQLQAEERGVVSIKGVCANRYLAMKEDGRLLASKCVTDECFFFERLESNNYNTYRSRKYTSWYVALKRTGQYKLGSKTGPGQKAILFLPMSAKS
Sequence of bFGF (P09038 134-288, species assumed): as above
Sequence of D(II)-D(III) FGFR1 (P11362 150-254 limits assumed): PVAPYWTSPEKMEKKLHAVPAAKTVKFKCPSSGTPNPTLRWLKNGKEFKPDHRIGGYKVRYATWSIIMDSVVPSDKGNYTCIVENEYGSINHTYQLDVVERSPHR

For the substance pentosan polysulfate [Pentosan PSO4], in data set [1], the “outcome of clinical trials” value is on record as “discounted due to toxic effects”. Further, the pKd is 5.62 in data set [2] (calculated with equation (1), read-out: Kd at Tm); 6.37 in data set [2] (estimated with equation (3), ΔHL estimated −10.0 kcal/mole, read-out: Kd at 298° K Observed); 4.72 in data set [3] (setting [7]); 5.31 in data set [3] (equation (3), ΔHL −12.1 (pentosan PSO4) and −7.48 kcal/mole (heparin 5000), read-out: Kd at 298° K Observed); 4.96 at D(II)-D(III) FGFR1; 7.26 in data set [5]. Further, the pKd in data set [6] (setting [7]) is 6.68; in data set [6] (equation (3), ΔHL estimated −10.0 kcal/mole, read-out: Kd at 298° K Observed), 7.51. In addition, in data set [2] (thermal shift assay, at Tm), the “affinity at Tm, fold higher than the affinity of heparin 5000” value is listed as 7 fold. In addition, the Tm in data set [2] (thrombin/ligand complex, 11 μM thrombin, ligand 40-102 μM, turbidity) is 332.15 ° K; in data set [3] (D(II) FGFR1 70 μM, 136 μM ANS, ligand 150-156 μM), 319.4 ° K; in data set [6] (aFGF/ligand, aFGF 0.25 mg/mL, ligand 47-200 μM, turbidity) it was 336.15 ° K. On bFGF, the pKi was 7.06. Moreover, in data set [4], the anticoagulant properties entry is “anticoagulant properties”.

The values above are taken from US20020114734A1, “Microplate thermal shift assay apparatus for ligand development and multi-variable protein chemistry optimization” (priority 1996, published 2002).
